According to patent EP3710011B1, “PENTACYCLIC TRITERPENES FOR THE TREATMENT OF AN ORAL DISEASE” (PIERRE FABRE MEDICAMENT, priority 2017, dated 2019):
Read-outs that look alike come from different tables or passages of the source.

What was measured:
[1] = tested on: Staphylococcus aureus CIP4.83; experiment: Determination of minimal inhibitory (CMI) and minimal bactericidal (CMB) concentration, liquid micro-method then subculture on agar; assay type: cell-based; conditions: for CMB / CMI / CMB (DMSO dilution) / CMI (DMSO dilution): S. aureus; for CMB / CMI: purified sample dissolved in DMSO; for CMB (DMSO dilution): real dilution (DMSO) at the CMB point; for CMI (DMSO dilution): real dilution (DMSO) at the CMI point
Description: • L'échantillon « Extrait CCV » obtenu tel que dans l'exemple 1 est titré à 150 µg/ml en Célastrol, 40 µg/ml en Tingénine A et 20 µg/ml en Tingénine B, dissouts dans du pentylène glycol 100 %. Pour les besoins du dosage, il est dilué à 2 % dans de l'eau pour préparation injectable (PPI). • L'échantillon « Tingénine A » est titré à 150 µg/ml dans du DMSO 10 %. • L'échantillon « Tingénine B » est titré à 150 µg/ml du DMSO 10 %. • L'échantillon « Célastrol » est titré à 150 µ/ml dans du DMSO 10 %.
Les souches bactériennes utilisées sont : • Staphylococcus aureus CIP4.83 entretenue sur milieu gelosé Trypticase-soja à 36 +/- 1 °C. • Fusobacterium nucleatum CIP101130T entretenue sur milieu gélosé Columbia + 5 % de sang de mouton à 36+/-1 °C en anaérobiose
La détermination de la Concentration Minimale Inhibitrice (CMI) est réalisée par micro-méthode en milieu liquide. 100 µL de milieu de culture Muller Hinton sont déposés dans chaque puits d'une microplaque de 96 puits stérile. 100 µL de l'échantillon à tester sont déposés dans la colonne 1 de la microplaque (deux puits par extrait à tester). Des dilutions de raison 2 sont réalisées de la façon suivante : 100 µL sont prélevés dans les puits de la colonne 1 puis ajouté et mélangés aux puits de la colonne 2. Cette opération est répétée jusqu'à la colonne 10. Les 100 µL prélevés dans la colonne 10 sont éliminés. La colonne 11 est utilisée comme témoin positif (milieu de culture + bactérie à tester). La colonne 12 est utilisée comme témoin négatif (milieu de culture seul). La microplaque est ensemencée (hors témoin négatif de croissance). Après une incubation de 16 à 24 h l'observation de la croissance à l'œil nu permet de déterminer une CMI (la plus faible concentration en extrait qui inhibe la croissance).
La détermination de la Concentration Minimale Bactéricide (CMB) est réalisée par repiquage des microplaques CMI sur un milieu Muller Hinton gélosé. Après incubation, la CMB correspond à la plus faible concentration de l'extrait testé pour laquelle on observe une absence de croissance.
Dans les tableaux 1 et 2 présentant les résultats comparatifs des différents échantillons testés sont indiqués : • 1. Pour l'extrait CCV, les CMI/CMB sont des concentrations équivalentes en célastrol. En effet, cet extrait est une solution qui contient majoritairement du Célastrol (Célastrol > 50 %, Tingénine A > 5 % et Tingénine B > 5 %). L'extrait est dissout dans du Pentylène Glycol (PG), on a le % (P/P) correspondant à la dilution réelle au point de CMI ou de CMB, et on en déduit la concentration équivalente en Célastrol grâce au titre (150 µg/ml) quantifié par HPLC. • 2. Pour les échantillons de Célastrol, de Tingénine A et de Tingénine B purifiés et dissouts dans le DMSO, le % mentionné correspond à la dilution réelle au point de CMI ou de CMB. • 3. Pour les solvants de contrôle DMSO et Pentylène Glycol (PG) testés en parallèle, le % correspond à la dilution réelle au point de CMI ou de CMB.

[2] = tested on: kératinocytes humains oraux; experiment: RT-qPCR of inflammatory marker expression in oral keratinocytes stimulated with IL-17, IL-22 and TNF-alpha; assay type: cell-based
Description: (§1) • L'échantillon « Extrait CCV » est obtenu tel que décrit dans l'exemple 1 et est dilué dans du DMSO 0,4% afin d'obtenir une concentration en célastrol de 137 µg/mL; trois doses sont testées, à savoir 10, 30 et 100 ng/mL. • L'échantillon « Célastrol » 150 µg/mL dans du DMSO 0,4 %; trois doses sont testées à savoir 10, 30 et 100 ng/mL.
(§2) Les échantillons contrôles sont les suivants : • L'échantillon témoin négatif « DMSO » (DMSO à 0,4%); et • L'échantillon témoin positif « Inhibiteur JAK » comprenant 10 µM d'inhibiteur JAK (JAK Inhibitor I - CAS 457081-03-7 - Calbiochem).
(§3) La lignée cellulaire utilisée est une lignée de kératinocytes humains oraux (CliniSciences ref.2610-SC). Cette lignée est cultivée à 37 °C, sous atmosphère 5 % de CO2 dans un milieu adapté (Oral Keratinocyte medium OKM supplémenté avec de la pénicilline 100 U/mL et de la streptomycine 100 µg/mL).
(§4) Les kératinocytes humains oraux sont ensemencés dans des puits de plaques à 24 puits (75 000 cellules/puits) et cultivés pendant 24h. Le milieu de culture est alors remplacé par du milieu frais contenant les échantillons à tester, et les cellules sont à nouveau incubées pendant 24h. L'opération est renouvelée à nouveau en présence d'un mix de cytokines stimulatrice des kératinocytes : IL-17, IL-22 et TNF-alpha à 3 ng/ml chacune. Le temps de culture est de 24h pour les expériences de RT-pPCR et de 48 pour les expériences d'ELISA. Les cellules sont ensuite lavées dans une solution de PBS et congelées immédiatement à - 80 °C.
(§5) Les expériences ont été réalisées en triplicats.
L'expression des marqueurs IL-8, CXCL1, DEBF4A, S100A7, IL-36 gamma et MMP9, par les kératinocytes est déterminée par RT-qPCR comme décrit dans la littérature avec des kits de Reverse transcriptase (Roche) et de PCR quantitative. Un témoin positif de PCR (GAPDH), exprimé constitutivement, est réalisé en parallèle afin de normaliser les résultats obtenus.

[3] = tested on: kératinocytes humains oraux; experiment: ELISA of IL-8, hBD-2 and MMP-9 secreted by oral keratinocytes stimulated with IL-17, IL-22 and TNF-alpha; assay type: cell-based; conditions: 48h stimulation; for inhibition at 10 µM: Keratinocyte
Description: as §1, §2, §3, §4, §5
La quantité d'IL8, hBD-2 (DEBF4A) et de MMP-9 sécrétée par les kératinocytes dans le milieu de culture après 48h de stimulation est mesurée par ELISA.

[4] = tested on: lymphocytes T CD4+; experiment: Anti-TH17 activity: cytokines secreted by CD4+ T lymphocytes activated with anti-CD3/anti-CD28 (Multiplex Immunoassays); assay type: cell-based, humaines; conditions: 2 µM
Description: L'échantillon « Extrait CCV » est obtenu tel que dans l'exemple 1 et est dilué dans 0,4 % DMSO afin d'obtenir les différentes concentrations finales suivantes après ajout dans les puits : • Extrait 2 (titré en Célastrol à 9 ng/ml); • Extrait 3 (titré en Célastrol à 30 ng/ml); et • Extrait 4 (titré en Célastrol à 90 ng/ml).
Les échantillons contrôles sont les suivants : • Contrôle négatif 1 (solution DMSO à 0,4 %); et • Contrôle positif 5 : dexaméthasone (Dexa) à 2 µM (concentration finale dans le puits).
Les cellules T humaines ont été isolées à partir de cellules mononuclées de sang de deux donneurs sur Ficoll Paque plus (selon le protocole du fabricant). Les cellules CD4+ sont isolées par tri positif (Kit Miltenyi Biotec (CD4) et colonne LS) et remises en suspension dans du milieu de culture RPMI (Sigma Aldrich : L-Glutamine et sérum foetal bovin à 10 %) additionné de […] de streptomycine et 100 U/mL de pénicilline.
Les Lymphocytes en suspension sont répartis dans des puits de microplaques. […]
La quantité de cytokine IL17A, IFN gamma, IL22, TNF alpha et IL6 sécrétée dans le surnageant de culture des lymphocytes est ensuite mesurée par la méthode Multiplex Immunoassays (tel que notamment décrit dans Jager et al. Clin. Diagn. Lab. Immunol. 2003, 10(1), 133-139).

CC1=C(O)C(=O)C=C2C1=CC=C1[C@@]2(C)CC[C@@]2(C)[C@@H]3C[C@@H](C)C(=O)C[C@]3(C)CC[C@]12C [Tingénine A] was tested, and the CMB [1] was 2,34 µg/ml, the CMI [1] was 1,17 µg/ml and the “CMB (DMSO dilution)” value [1] was 0,08%. For the same compound, the “CMI (DMSO dilution)” value [1] was 0,08%.

CC1=C(O)C(=O)C=C2C1=CC=C1[C@@]2(C)CC[C@@]2(C)[C@@H]3C[C@@H](C)C(=O)[C@@H](O)[C@]3(C)CC[C@]12C [Tingénine B, 22 béta-Hydroxy-tingénone] was tested, and the CMB [1] was 1,17 µg/ml, the CMI [1] was 0,59 µg/ml and the “CMB (DMSO dilution)” value [1] was 0,08%. For the same compound, the “CMI (DMSO dilution)” value [1] was 0,04% and the “activité anti S. aureus, fois supérieure à celle de la Tingénine A” value ([1]; ratio versus Tingénine A) was 2-4 fois.

With CC1=C(O)C(=O)C=C2C1=CC=C1[C@@]2(C)CC[C@@]2(C)[C@@H]3C[C@](C)(C(=O)O)CC[C@]3(C)CC[C@]12C [Célastrol] the CMB [1] was 0,59 µg/ml, the CMI [1] was 0,29 µg/ml and the “CMB (DMSO dilution)” value [1] was 0,04%. For the same compound, the “CMI (DMSO dilution)” value [1] was 0,01%, the “expression des marqueurs IL-8, DEFBA4, S100A7, IL-36 gamma et MMP9” value ([2]; 10, 30 and 100 ng/mL, 24h stimulation) was “inhibition claire, significative et dose dépendante” and the “inhibition de l'expression du marqueur MMP9” value ([3]; at 30 ng/ml) was about 40%.

In the case of CC(C)(C)c1nc2c3ccc(F)cc3c3c(=O)[nH]ccc3c2[nH]1 [inhibiteur JAK, JAK Inhibitor I], the “expression de l'IL-36 gamma et de la MMP9” value ([2]; 10 µM) is reported as “n'inhibe ni l'IL-36 gamma ni la MMP9”, the “expression d'IL8, de DEFB4A et de S100A7” value ([2]; 10 µM, versus negative control) is reported as “diminution de l'expression” and the “augmentation de la sécrétion de MMP-9” value ([3]; 10 µM) is reported as 60%. It also gave an inhibition at 10 µM ([3]; 10 µM, read-out: inhibition de la sécrétion d'IL-8) of 69% and an inhibition at 10 µM ([3]; 10 µM, read-out: inhibition de la sécrétion de β-défensine-2) of 82%.

For C[C@@H]1C[C@H]2[C@@H]3CCC4=CC(=O)C=C[C@]4(C)[C@@]3(F)[C@@H](O)C[C@]2(C)[C@@]1(O)C(=O)CO [dexaméthasone], the “surexpression des cytokines IL-17A, IFN gamma, IL-22, TNF alpha et IL-6” value [4] was “inhibe la surexpression de toutes les cytokines”.
